From patent publication US20240261225A1, “FORMIC ACID AS PROCESSING AID IN SPRAY DRYING FOR BASIC DRUGS” (Lonza Bend Inc., priority 2021, published 2024)
In brackets after ≈: the same amount, converted by molar mass.

Experiments:
[1] = Gefitinib solubility in methanol and methanol:water mixtures (saturated solutions, HPLC); format: physicochemical; conditions: 20° C.; for Solubility without formic acid: calculated based on densities at RT
Protocol: Crystalline gefitinib was added in excess to methanol and methanol:water mixtures to form saturated solutions at 20° C. After 24 hour of stirring, 1 mL aliquots were centrifuged at 10'000 RCF for 3 min. The supernatant was then analyzed for gefitinib concentration by HPLC.

[2] = physchem; conditions: 21 °C, organic solvent or mixture, thermodynamic from solid, Solubility with formic acid
Protocol: The solubility of gefitinib in solvent mixtures with 98% formic acid were obtained by suspending at RT 300 mg of crystalline gefitinib in 5 mL of solvent containing 100 microliters of formic acid at 21° C. (4.0 eq of formic acid). Both solutions were visually clear solutions at 60 mg/mL.
5 ml of a mixture of 4.9 ml of 90:10 methanol/water w/w with 0.1 ml HCOOH weigh 4.122 g based on the densities at RT as stated below.
5 ml of a mixture of 4.9 ml 80:20 methanol:water w/w with 0.1 ml HCOOH weigh 4.212 g based on the densities at RT as stated below.
The solution in the mixture of 4.9 ml of 90:10 MeOH:H2O w/w with 0.1 ml HCOOH was a visually clear solution at 72.8 mg/g based on the densities at RT as stated below.
The solution in the mixture of 4.9 ml of 80:20 MeOH:H2O w/w with 0.1 ml HCOOH was a visually clear solution at 71.2 mg/g based on the densities at RT as stated below.
[Solubility with formic acid]/[Solubility without formic acid]

[3] = according to go.drugbank.com; cited from earlier work
[4] = physchem; conditions: 25 °C, organic solvent or mixture
[5] = Nilotinib solubilities without and with formic acid; conditions: for Solubility with formic acid: 4.0 molar equivalents of formic acid

Row | Solubility without formic acid ([1]; MeOH:H2O 80:20 (w/w)) [mg/g] | Solubility without formic acid ([1]; MeOH:H2O 90:10 (w/w)) [mg/g] | Solubility without formic acid ([1]; MeOH:H2O 100:0 (w/w)) [mg/g] | solubility at 24 h ([1]; methanol, organic solvent or mixture, thermodynamic from solid, MeOH:H2O 100:0 (w/w), read-out: Solubility without formic acid) [µg/mL] | solubility [2] [µg/mL] | solubility ([4]; methanol) [µg/mL] | solubility ([4]; methanol:water 90:10 (w/w)) [µg/mL] | Solubility with formic acid ([5]; MeOH:H2O 80:20 (w/w), 25° C.) [µg/mL] | Solubility without formic acid ([5]; MeOH:H2O 80:20 (w/w), 25° C.) [µg/mL] | Solubility with formic acid ([5]; MeOH:H2O 90:10 (w/w), 25° C.) [µg/mL] | Solubility with formic acid ([5]; MeOH:H2O 100:0 (w/w), 25° C.) [µg/mL] | effect of addition of formic acid on solubility over the solubility in MeOH ([5]; formic acid with and without the presence of water) | Structure (SMILES) | basic pKa [3]
1 | 7.6 | 7.4 | 8.8 | 7000 (≈ 15.7 mM) | ≥ 60000 | – | – | – | – | – | – | – | COc1cc2ncnc(Nc3ccc(F)c(Cl)c3)c2cc1OCCCN1CCOCC1 [gefitinib] | –
2 | – | – | – | – | – | 2900 (≈ 5.48 mM) | 2000 (≈ 3.78 mM) | 8200 | 1000 (≈ 1.89 mM) | 8200 | 7900 | increase of solubility | Cc1cn(-c2cc(NC(=O)c3ccc(C)c(Nc4nccc(-c5cccnc5)n4)c3)cc(C(F)(F)F)c2)cn1 [nilotinib] | 5.92
